Experiment: Stability of working solutions of PB1 and PB2
Format: physicochemical
Procedure: All the above solutions were stored at −70°C.

Q: With polymyxin B2 [PB2] as the substance, how does the “Stability of working solutions” value read?
A: remained stable after storage at −70 °C for up to 7 days but not beyond 10 days

Source: paper PMC11361989, “A simple HPLC–MS/MS method for the determination of polymyxin B in human plasma and its application in the pharmacokinetic study in elderly patients infected with multidrug-resistant Gram-negative bacteria” (Frontiers in Pharmacology, 2024)
